The text below walks through data of patent US20230293485A1, “APPLICATION OF ARTEMISININ COMPOUND IN TREATMENT OF CORONAVIRUS INFECTION” (ACADEMY OF MILITARY MEDICAL SCIENCES, priority 2020, published 2023).

In one data set the test system is SARS-CoV-2. The format is cell-based. The settings on record: for Number of copies of viral genome (MOI = 0.05): Vero E6, 48 h; for Inhibitory activity on viral RNA load: dependence on dose (in words) / Viral nucleic acid load in vero E6 cells infected with SARS-CoV-2 (in words): 48 h after infection.
The subject of the next data set is Vero E6 cells. Kind of data set: Detection of drug cytotoxicity by CCK-8 kit. In kind it is cell-based. The following applies: for Cell viability (% of negative control): 48 h. As to the method:
The detection of drug cytotoxicity was performed by CCK-8 kit (Beoytime). Specific steps were as follows:
(1) 1×10^4 Vero E6 (ATCC) cells were inoculated into a 96-well plate and cultured at 37° C. for 8 hours.
(§1) (2) The test drug was diluted with DMSO to achieve an appropriate stock solution concentration, and then diluted with MEM medium (purchased from Gibco, Cat. No. 10370021) containing 2% FBS (purchased from Gibco, Cat. No. 16000044) to the same concentration as that for the drug treatment. The original medium in the 96-well plate was discarded, 100 μL of drug-containing MEM medium was added to the cells, and three replicate wells were made for each concentration. Negative controls (adding DMSO and medium to the cell wells without adding drug) and blank controls (no cells, adding DMSO and medium) were set. After the drug was added, the cells were cultured at 37° C. for 48 hours.
(3) 20 μL of CCK-8 solution (Beoytime) was added to the wells to be tested, mixed gently without generating air bubbles, and continued to incubate at 37° C. for 2 hours. OD450 was read on a microplate reader (purchased from Molecular Devices, model SpectraMax M5), and cell viability was calculated:
Cell viability (%)=(A(drug treatment group)−A(blank control))/(A(negative control)−A(blank control))×100%
wherein A represents reading of microplate reader.
as §1, with “of the” for “of”
Background: Formazan colour is commonly taken as a measure of viable cells.

Read-outs that look alike come from different tables or passages of the source.

As for `C[C@@H]1CC[C@H]2[C@@H](C)C(=O)O[C@@H]3O[C@@]4(C)CC[C@@H]1[C@]32OO4` [artemisinin], the “Number of copies of viral genome (MOI = 0.05)” value (“Number” below) in the data set on SARS-CoV-2 (6.25 μM drug) is reported as 79058074 copies; in the data set on SARS-CoV-2 (12.5 μM drug), 72012135 copies; with SARS-CoV-2 (25 μM drug), 61918172 copies; in the data set with SARS-CoV-2 (50 μM drug), 31079912 copies; with SARS-CoV-2 (100 μM drug) it was 37237188 copies; in the data set on SARS-CoV-2 (150 μM drug) it was 25440652 copies. Also, the “Inhibitory activity on viral RNA load: dependence on dose (in words)” value (“Inhibitory activity on viral RNA load” below) in the data set on SARS-CoV-2 was “dose-dependent”. In addition, in the data set on SARS-CoV-2, the “Viral nucleic acid load in vero E6 cells infected with SARS-CoV-2 (in words)” value (shortened to “Viral nucleic acid load”) was “effectively reduced viral nucleic acid load”. The “Inhibition of replication of SARS-CoV-2 virus genome in the infection supernatant (in words)” value (shortened to “Inhibition”) in the data set with SARS-CoV-2 (at 150 μM, 100 μM and 50 μM) is given as “effectively inhibit”. Moreover, the “Cell viability (% of negative control)” value is 98.45 % of negative control with Vero E6 cells (1.56 μM drug); 101.55 % of negative control with Vero E6 cells (3.13 μM drug); 104.23 % of negative control in the data set on Vero E6 cells (6.25 μM drug); 112.55 % of negative control in the data set with Vero E6 cells (12.5 μM drug); 104.26 % of negative control in the data set on Vero E6 cells (25 μM drug); 110.71 % of negative control in the data set with Vero E6 cells (50 μM drug). The “Cell viability (% of negative control)” value with Vero E6 cells (100 μM drug) is given as 109.14 % of negative control; in the data set with Vero E6 cells (200 μM drug), 97.14 % of negative control. In the data set with Vero E6 cells (all the tested concentrations), the “Toxic effect on the cells (in words)” value is on record as “no toxic effect”.

Take `CO[C@H]1O[C@@H]2O[C@@]3(C)CC[C@H]4[C@H](C)CC[C@@H]([C@H]1C)[C@@]24OO3` [artemether]: the “Number” value was found to be 49305413 copies in the data set on SARS-CoV-2 (6.25 μM drug); 68497905 copies with SARS-CoV-2 (12.5 μM drug); 32850309 copies with SARS-CoV-2 (25 μM drug); 26849476 copies with SARS-CoV-2 (50 μM drug); 3326694 copies with SARS-CoV-2 (100 μM drug); 250314 copies with SARS-CoV-2 (200 μM drug). The “Cell viability (% of negative control)” value in the data set on Vero E6 cells (1.56 μM drug) is reported as 107.12 % of negative control; with Vero E6 cells (3.13 μM drug) it was 103.68 % of negative control; in the data set with Vero E6 cells (6.25 μM drug), 115.71 % of negative control; in the data set on Vero E6 cells (12.5 μM drug) it was 115.49 % of negative control; in the data set on Vero E6 cells (25 μM drug), 118.96 % of negative control; with Vero E6 cells (50 μM drug), 120.26 % of negative control. Besides, the “Cell viability (% of negative control)” value in the data set with Vero E6 cells (100 μM drug) is recorded as 130.18 % of negative control; in the data set with Vero E6 cells (200 μM drug), 132.83 % of negative control. Moreover, the “Toxic effect on the cells (in words)” value with Vero E6 cells (all the tested concentrations) is on record as “no toxic effect”.

Regarding `C[C@H]1[C@H](OC(=O)CCC(=O)O)O[C@@H]2O[C@@]3(C)CC[C@H]4[C@H](C)CC[C@@H]1[C@@]24OO3` [artesunate], the “Number” value came to 228511812 copies in the data set with SARS-CoV-2 (0.94 μM drug); 171362509 copies with SARS-CoV-2 (1.88 μM drug); 170594446 copies in the data set with SARS-CoV-2 (3.13 μM drug); 113126147 copies with SARS-CoV-2 (6.25 μM drug); 111098018 copies in the data set with SARS-CoV-2 (12.5 μM drug); 70210200 copies in the data set on SARS-CoV-2 (25 μM drug). Moreover, the “Inhibitory activity on viral RNA load” value in the data set on SARS-CoV-2 is “dose-dependent”. Besides, the “Viral nucleic acid load” value in the data set on SARS-CoV-2 is “effectively reduced viral nucleic acid load”. Further, the “Inhibition” value with SARS-CoV-2 (at 25 μM, 12.5 μM and 6.25 μM) is “effectively inhibit”. The “Cell viability (% of negative control)” value was 100.09 % of negative control in the data set with Vero E6 cells (0.78 μM drug); 99.91 % of negative control in the data set on Vero E6 cells (1.56 μM drug); 97.52 % of negative control in the data set on Vero E6 cells (3.13 μM drug); 100.64 % of negative control with Vero E6 cells (6.25 μM drug); 93.38 % of negative control with Vero E6 cells (12.5 μM drug); 84.24 % of negative control in the data set with Vero E6 cells (25 μM drug). Moreover, the “Cell viability (% of negative control)” value in the data set with Vero E6 cells (50 μM drug) is 55.44 % of negative control; in the data set with Vero E6 cells (100 μM drug) it was 21.71 % of negative control. In addition, the figures for the “Toxic effect on the cells (in words)” value in the data set with Vero E6 cells (at 12.5 μM or lower) and in the data set on Vero E6 cells (at 25 μM) were “no toxic effect” and “a slight toxicity”, respectively.

Consider `C=C1C(=O)O[C@@]23[C@H]1CC[C@@H](C)[C@@H]2CC[C@@]1(C)O[C@@H]31` [arteannuin B], for which the “Number” value in the data set on SARS-CoV-2 (1.56 μM drug) is recorded as 99554711 copies; with SARS-CoV-2 (3.13 μM drug), 99188163 copies; in the data set with SARS-CoV-2 (6.25 μM drug), 98310684 copies; in the data set on SARS-CoV-2 (12.5 μM drug), 13307075 copies; in the data set with SARS-CoV-2 (25 μM drug), 342654 copies; in the data set with SARS-CoV-2 (50 μM drug) it was 176411 copies. Further, the “Inhibitory activity on viral RNA load” value in the data set with SARS-CoV-2 is recorded as “dose-dependent”. Besides, the “Viral nucleic acid load” value with SARS-CoV-2 is “effectively reduced viral nucleic acid load”. Moreover, the “Inhibition” value with SARS-CoV-2 (at 50 μM, 25 μM and 12.5 μM) is listed as “effectively inhibit”. Moreover, the “Cell viability (% of negative control)” value in the data set with Vero E6 cells (0.78 μM drug) was 93.55 % of negative control; with Vero E6 cells (1.56 μM drug) it was 90.63 % of negative control; in the data set with Vero E6 cells (3.13 μM drug), 94.86 % of negative control; with Vero E6 cells (6.25 μM drug) it was 102.66 % of negative control; in the data set on Vero E6 cells (12.5 μM drug) it was 111.44 % of negative control; with Vero E6 cells (25 μM drug), 95.10 % of negative control. Moreover, the “Cell viability (% of negative control)” value in the data set with Vero E6 cells (50 μM drug) is reported as 74.40 % of negative control; in the data set on Vero E6 cells (100 μM drug), 26.24 % of negative control. Moreover, the entries for the “Toxic effect on the cells (in words)” value in the data set on Vero E6 cells (at 25 μM or lower) and with Vero E6 cells (at 50 μM) were “no toxic effect” and “a certain toxicity”, respectively.

With `C[C@H]1[C@@H](O)O[C@@H]2O[C@@]3(C)CC[C@H]4[C@H](C)CC[C@@H]1[C@@]24OO3` [dihydroartemisinin], the “Number” value in the data set with SARS-CoV-2 (0.94 μM drug) is given as 111625955 copies; in the data set on SARS-CoV-2 (1.88 μM drug), 68962319 copies; with SARS-CoV-2 (3.13 μM drug), 90162353 copies; in the data set with SARS-CoV-2 (6.25 μM drug), 55425811 copies; with SARS-CoV-2 (12.5 μM drug), 31485734 copies; with SARS-CoV-2 (25 μM drug) it was 23363010 copies. For the same compound, the “Cell viability (% of negative control)” value in the data set with Vero E6 cells (0.78 μM drug) was 93.93 % of negative control; in the data set on Vero E6 cells (1.56 μM drug) it was 98.80 % of negative control; with Vero E6 cells (3.13 μM drug), 93.03 % of negative control; in the data set with Vero E6 cells (6.25 μM drug) it was 100.38 % of negative control; in the data set with Vero E6 cells (12.5 μM drug) it was 88.94 % of negative control; in the data set on Vero E6 cells (25 μM drug) it was 66.36 % of negative control. Besides, the “Cell viability (% of negative control)” value in the data set with Vero E6 cells (50 μM drug) is 22.18 % of negative control; in the data set with Vero E6 cells (100 μM drug), 2.33 % of negative control. Further, the “Toxic effect on the cells (in words)” value with Vero E6 cells (at 6.25 μM or lower) was “no toxic effect”; in the data set on Vero E6 cells (at 12.5 μM), “a slight toxicity”.
